Consider 19 compounds from ChEMBL document CHEMBL1201862, “PubChem BioAssay data set” (2004).

Broadly, the AC50 is the midpoint of the concentration-response curve, whichever way the signal moves. A word on the EC50: it is the concentration needed to bring the measured effect to its halfway point. By IC50 is commonly meant the concentration at which inhibition is half-maximal.

The structures appear in SMILES notation. Active and inactive are the calls of the source. Bounds are passed on as bounds.

Series [1] addresses T1, CAAX prenyl protease 2 (Saccharomyces cerevisiae S288c, UniProt Q03530).
T1 sequence (Q03530 whole entry): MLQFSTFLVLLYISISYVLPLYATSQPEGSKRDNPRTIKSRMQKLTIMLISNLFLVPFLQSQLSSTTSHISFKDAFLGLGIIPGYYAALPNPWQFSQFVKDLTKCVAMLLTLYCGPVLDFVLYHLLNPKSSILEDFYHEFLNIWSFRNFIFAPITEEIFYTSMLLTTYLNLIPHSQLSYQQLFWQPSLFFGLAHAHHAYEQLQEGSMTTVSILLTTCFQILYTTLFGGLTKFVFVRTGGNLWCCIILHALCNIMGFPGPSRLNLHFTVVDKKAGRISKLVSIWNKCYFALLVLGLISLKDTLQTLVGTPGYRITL
The series is classed as biochemical.

The target in series [2] is Cytochrome P450 2D6 (Homo sapiens, UniProt P10635).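 Also: CYP2D6 member of a cytochrome P450 panel assay.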
Series [3] can be described thus: cytotoxicity in HMLE control line with eGFP shRNA, dose response, counter-screen for HMLE_sh_ECad selective toxicity project, cell-based, HMLE_sh_eGFP, luminescence (AID 463074).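 Also: HMLE human mammary epithelial cells expressing control shRNA against eGFP.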 It is filed as functional, Homo sapiens.
Series [4] can be described thus: Luminescence Cell-Based Dose Retest to Confirm Inhibitors of Cancer Stem Cells. [Related pubchem assays (depositor defined):AID2717, AID2721]. It is filed as functional. To be noted: Homo sapiens.
For series [5], the target named is Trypsin (Sus scrofa, UniProt P00761). As to the kind of experiment: porcine trypsin inhibitors, dose response, selectivity assay for Rce1 protease inhibitor project, biochemical, quenched peptide fluorescence, cherry-pick (AID 488789).
In series [6] the target is T2, Cytochrome P450 1A2 (Homo sapiens, UniProt P05177).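 Also: PubChem cytochrome P450 panel assay, CYP1A2 panel member.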
T2 sequence (P05177 whole entry): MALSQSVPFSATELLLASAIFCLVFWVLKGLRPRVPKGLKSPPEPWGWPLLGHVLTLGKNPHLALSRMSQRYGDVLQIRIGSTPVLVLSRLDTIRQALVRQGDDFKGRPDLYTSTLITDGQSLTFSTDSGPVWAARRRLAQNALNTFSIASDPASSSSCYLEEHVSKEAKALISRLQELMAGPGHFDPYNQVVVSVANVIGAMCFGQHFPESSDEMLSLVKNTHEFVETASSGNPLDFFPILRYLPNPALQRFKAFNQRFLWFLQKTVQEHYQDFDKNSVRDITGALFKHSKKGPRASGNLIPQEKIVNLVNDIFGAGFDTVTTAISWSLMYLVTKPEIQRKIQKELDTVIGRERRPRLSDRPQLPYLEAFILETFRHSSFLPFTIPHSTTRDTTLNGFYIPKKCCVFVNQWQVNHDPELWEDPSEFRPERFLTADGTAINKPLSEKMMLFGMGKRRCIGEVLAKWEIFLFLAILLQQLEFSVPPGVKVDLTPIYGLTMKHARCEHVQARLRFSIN

In series [7] the target is Peroxisome proliferator-activated receptor gamma/Nuclear receptor coactivator 3 (Homo sapiens, UniProt P37231). Put plainly: TR-FRET dose response biochemical High Throughput Screening assay for agonists of the steroid receptor coactivator 3 (SRC-3) recruitment by the peroxisome proliferator-activated receptor gamma (PPAR gamma): non-selective agonists. [Related pubchem assays: 1301 (Confirmation screen.), 1048 (Primary screen.)]. The series is classed as functional.

For series [8], the target named is Peroxisome proliferator-activated receptor gamma/Nuclear receptor coactivator 1 (Homo sapiens, UniProt P37231). Put plainly: TR-FRET dose response biochemical High Throughput Screening assay for agonists of the steroid receptor coactivator 1 (SRC-1) recruitment by the peroxisome proliferator-activated receptor gamma (PPAR gamma): non-selective agonists. [Related pubchem assays (depositor defined):AID1300, AID1808, AID504735, AID631]. It is filed as protein assay. A general note: TR-FRET usually uses a lanthanide donor and a delayed reading to cut background.

The target in series [9] is Peroxisome proliferator-activated receptor gamma/Nuclear receptor coactivator 2 (Homo sapiens, UniProt P37231). As to the kind of experiment: TR-FRET dose response biochemical High Throughput Screening assay for agonists of the steroid receptor coactivator 2 (SRC-2) recruitment by the peroxisome proliferator-activated receptor gamma (PPAR gamma): non-selective agonists. [Related pubchem assays: 1297, 1032 ]. The series is classed as functional.

Series [10] addresses T3, Mannose-6-phosphate isomerase (Homo sapiens, UniProt P34949).
T3 sequence (P34949 whole entry): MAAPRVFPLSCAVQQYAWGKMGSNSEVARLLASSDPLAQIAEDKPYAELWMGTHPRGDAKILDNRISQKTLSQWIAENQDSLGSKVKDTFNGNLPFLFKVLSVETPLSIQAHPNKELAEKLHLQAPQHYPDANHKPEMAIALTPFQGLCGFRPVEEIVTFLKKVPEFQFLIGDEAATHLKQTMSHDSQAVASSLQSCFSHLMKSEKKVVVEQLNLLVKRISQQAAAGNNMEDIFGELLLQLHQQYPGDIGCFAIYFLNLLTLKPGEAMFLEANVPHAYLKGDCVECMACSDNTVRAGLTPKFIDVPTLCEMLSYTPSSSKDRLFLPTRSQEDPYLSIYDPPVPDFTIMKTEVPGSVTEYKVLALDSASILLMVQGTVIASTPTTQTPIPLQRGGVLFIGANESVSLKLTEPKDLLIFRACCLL
As to the kind of experiment: PMI enzyme inhibitors, confirmation, biochemical, fluorescence intensity (AID 1535).

The target of series [11] is T4, Phosphoethanolamine/phosphocholine phosphatase (Homo sapiens, UniProt Q8TCT1).
T4 sequence (Q8TCT1 whole entry): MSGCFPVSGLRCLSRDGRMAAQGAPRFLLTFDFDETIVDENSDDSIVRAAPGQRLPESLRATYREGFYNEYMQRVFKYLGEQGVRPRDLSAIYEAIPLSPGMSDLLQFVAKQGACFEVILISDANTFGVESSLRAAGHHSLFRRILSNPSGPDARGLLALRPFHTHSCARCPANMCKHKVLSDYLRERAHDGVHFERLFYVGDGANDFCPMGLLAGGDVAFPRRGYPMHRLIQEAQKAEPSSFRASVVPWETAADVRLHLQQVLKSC
As to the kind of experiment: SAR assay for compounds that inhibit PHOSPHO1. [Related pubchem assays (depositor defined):AID1545, AID1565, AID1574].

In series [12] the target is T5, Phosphomannomutase 2 (Homo sapiens, UniProt O15305).
T5 sequence (O15305 whole entry): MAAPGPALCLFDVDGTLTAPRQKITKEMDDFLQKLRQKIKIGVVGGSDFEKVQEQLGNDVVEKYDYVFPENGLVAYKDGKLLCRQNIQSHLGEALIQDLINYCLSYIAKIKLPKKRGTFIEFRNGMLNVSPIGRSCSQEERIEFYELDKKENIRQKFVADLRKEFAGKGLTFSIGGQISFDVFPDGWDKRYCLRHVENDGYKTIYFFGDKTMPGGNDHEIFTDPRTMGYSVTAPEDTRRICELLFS
As to the kind of experiment: Counter screen SAR assay for PMM2 inhibitors via a fluorescence intensity assay. [Related pubchem assays (depositor defined):AID1545, AID1574]. Background: The purpose of a counterscreen is to sort out artefacts and off-target activity.

The target in series [13] is T6, Alkaline phosphatase, tissue-nonspecific isozyme (Homo sapiens, UniProt P05186).
T6 sequence (P05186 whole entry): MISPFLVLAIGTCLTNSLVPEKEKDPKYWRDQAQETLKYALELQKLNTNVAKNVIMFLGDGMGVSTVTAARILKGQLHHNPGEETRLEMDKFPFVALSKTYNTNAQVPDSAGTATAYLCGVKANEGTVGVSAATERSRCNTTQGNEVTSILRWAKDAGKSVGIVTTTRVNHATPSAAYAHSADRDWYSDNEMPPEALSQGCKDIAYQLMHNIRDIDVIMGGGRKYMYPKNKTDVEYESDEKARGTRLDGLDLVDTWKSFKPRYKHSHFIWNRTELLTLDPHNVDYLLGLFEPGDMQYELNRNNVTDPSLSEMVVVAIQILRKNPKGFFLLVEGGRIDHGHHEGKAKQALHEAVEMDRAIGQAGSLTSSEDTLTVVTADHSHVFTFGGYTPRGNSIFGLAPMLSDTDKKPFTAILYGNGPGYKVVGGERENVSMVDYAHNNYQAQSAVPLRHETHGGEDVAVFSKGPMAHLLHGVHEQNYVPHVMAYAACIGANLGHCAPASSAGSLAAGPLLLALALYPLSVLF
As to the kind of experiment: TNAP enzyme inhibition by screening hits, dose response, selectivity assay for mouse IAP inhibitor project, biochemical, human TNAP, uHTS hits (AID 488906). It is filed as functional.

Series [14] deals with Intestinal-type alkaline phosphatase (Mus musculus, UniProt P24822). Put plainly: PubChem AID 488785. The series is classed as functional.
Series [15] addresses Intestinal-type alkaline phosphatase (Homo sapiens, UniProt P09923). As to the kind of experiment: inhibition of human intestinal alkaline phosphatase – biochemical, dose response (AID 488876). The series is classed as functional.
For series [16], the system named is Vero. As to the kind of experiment: cells. It is filed as functional, cell-based. The conditions noted are these: Chlorocebus sabaeus.
For series [17], the system named is Escherichia coli. As to the kind of experiment: microbe, parasite or virus in culture.
The target in series [18] is T7, Voltage-gated N-type calcium channel alpha-1B subunit/Amyloid beta A4 precursor protein-binding family A member 1 (Homo sapiens, UniProt Q00975+Q02410). It is filed as protein assay.
The target of series [19] is T7, Voltage-gated N-type calcium channel alpha-1B subunit/Amyloid beta A4 precursor protein-binding family A member 1. The series is classed as protein assay. The source holds these as a separate data set.
The target of series [20] is Cytochrome P450 2C19 (Homo sapiens, UniProt P33261). As to the kind of experiment: Cytochrome panel assay with activity outcomes. Panel member name: p450-cyp2c19 Compounds with AC50 equal or less than 10 uM are considered active. It is filed as functional.

Sequence of Cytochrome P450 2D6 (P10635 whole entry): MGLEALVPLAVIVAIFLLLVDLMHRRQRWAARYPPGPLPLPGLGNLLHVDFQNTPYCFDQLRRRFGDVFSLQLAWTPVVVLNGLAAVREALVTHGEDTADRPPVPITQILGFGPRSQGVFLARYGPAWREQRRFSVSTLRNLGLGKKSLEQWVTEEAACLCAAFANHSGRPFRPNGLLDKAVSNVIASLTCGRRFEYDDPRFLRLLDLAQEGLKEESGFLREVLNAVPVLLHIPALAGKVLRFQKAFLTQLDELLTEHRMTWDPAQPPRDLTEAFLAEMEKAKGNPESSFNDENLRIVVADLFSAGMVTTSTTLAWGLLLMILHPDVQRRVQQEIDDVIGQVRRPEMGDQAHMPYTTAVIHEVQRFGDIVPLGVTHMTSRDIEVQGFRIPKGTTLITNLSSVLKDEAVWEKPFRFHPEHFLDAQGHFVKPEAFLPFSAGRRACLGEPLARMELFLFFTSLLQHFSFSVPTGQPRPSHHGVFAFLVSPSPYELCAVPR
T7 sequence (Q00975 whole entry): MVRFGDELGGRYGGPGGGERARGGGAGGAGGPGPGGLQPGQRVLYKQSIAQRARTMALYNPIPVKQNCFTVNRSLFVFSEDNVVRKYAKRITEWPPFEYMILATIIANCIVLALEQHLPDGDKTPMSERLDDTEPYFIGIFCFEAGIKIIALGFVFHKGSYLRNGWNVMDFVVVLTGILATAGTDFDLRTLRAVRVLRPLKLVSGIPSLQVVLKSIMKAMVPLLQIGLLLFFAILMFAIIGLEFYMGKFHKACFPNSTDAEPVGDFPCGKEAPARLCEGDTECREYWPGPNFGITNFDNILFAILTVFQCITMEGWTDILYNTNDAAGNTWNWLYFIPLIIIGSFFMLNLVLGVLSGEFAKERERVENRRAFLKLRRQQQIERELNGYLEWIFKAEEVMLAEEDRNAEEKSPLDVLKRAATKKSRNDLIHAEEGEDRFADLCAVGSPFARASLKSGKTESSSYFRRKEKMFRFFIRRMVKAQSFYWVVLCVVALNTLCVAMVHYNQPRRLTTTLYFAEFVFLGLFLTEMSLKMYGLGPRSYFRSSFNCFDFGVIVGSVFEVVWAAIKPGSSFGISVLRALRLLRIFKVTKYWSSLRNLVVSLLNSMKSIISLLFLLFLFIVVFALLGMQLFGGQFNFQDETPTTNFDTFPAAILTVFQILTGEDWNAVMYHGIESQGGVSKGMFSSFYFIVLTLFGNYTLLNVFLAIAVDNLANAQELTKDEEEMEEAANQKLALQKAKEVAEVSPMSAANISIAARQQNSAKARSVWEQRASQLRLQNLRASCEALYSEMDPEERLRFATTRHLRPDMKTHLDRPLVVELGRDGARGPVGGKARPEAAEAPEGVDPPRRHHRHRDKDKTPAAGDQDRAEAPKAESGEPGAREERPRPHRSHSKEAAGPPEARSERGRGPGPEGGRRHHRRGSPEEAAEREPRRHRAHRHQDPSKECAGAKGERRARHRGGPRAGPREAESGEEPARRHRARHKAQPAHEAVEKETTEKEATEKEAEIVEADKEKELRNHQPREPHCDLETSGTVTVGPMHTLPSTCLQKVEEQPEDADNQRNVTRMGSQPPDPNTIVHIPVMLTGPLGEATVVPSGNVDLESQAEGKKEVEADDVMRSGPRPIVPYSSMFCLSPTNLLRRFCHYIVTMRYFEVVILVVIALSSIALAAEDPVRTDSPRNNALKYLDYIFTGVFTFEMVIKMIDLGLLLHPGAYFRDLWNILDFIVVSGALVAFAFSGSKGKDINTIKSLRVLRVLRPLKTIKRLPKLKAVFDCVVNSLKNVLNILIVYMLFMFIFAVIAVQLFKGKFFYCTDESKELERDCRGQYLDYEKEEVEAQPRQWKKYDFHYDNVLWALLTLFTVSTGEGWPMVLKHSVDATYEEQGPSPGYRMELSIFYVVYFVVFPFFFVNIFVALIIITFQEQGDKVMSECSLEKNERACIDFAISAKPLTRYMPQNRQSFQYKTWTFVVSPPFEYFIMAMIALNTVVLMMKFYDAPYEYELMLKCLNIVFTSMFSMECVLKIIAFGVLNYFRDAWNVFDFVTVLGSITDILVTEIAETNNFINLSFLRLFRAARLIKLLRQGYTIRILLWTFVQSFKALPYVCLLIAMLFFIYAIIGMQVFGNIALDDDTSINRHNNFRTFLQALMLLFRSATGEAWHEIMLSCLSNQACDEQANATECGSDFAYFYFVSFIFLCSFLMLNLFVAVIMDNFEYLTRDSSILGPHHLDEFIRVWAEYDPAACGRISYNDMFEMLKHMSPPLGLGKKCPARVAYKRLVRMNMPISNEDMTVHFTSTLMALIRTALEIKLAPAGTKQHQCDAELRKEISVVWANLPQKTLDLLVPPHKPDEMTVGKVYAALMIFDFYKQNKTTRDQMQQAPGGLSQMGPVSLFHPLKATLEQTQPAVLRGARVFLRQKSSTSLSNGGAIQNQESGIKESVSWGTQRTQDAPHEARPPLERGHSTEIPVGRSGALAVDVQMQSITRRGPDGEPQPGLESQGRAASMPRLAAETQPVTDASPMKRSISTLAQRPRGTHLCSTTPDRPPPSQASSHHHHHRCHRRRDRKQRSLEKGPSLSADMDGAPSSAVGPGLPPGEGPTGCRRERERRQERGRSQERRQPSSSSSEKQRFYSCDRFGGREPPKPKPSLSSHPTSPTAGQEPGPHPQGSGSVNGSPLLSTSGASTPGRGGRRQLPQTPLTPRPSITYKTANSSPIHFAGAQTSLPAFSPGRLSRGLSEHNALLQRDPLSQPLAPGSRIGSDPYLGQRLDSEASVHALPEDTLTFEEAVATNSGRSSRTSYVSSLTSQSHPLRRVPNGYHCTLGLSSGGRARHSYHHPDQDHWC
T7 sequence (Q02410 whole entry): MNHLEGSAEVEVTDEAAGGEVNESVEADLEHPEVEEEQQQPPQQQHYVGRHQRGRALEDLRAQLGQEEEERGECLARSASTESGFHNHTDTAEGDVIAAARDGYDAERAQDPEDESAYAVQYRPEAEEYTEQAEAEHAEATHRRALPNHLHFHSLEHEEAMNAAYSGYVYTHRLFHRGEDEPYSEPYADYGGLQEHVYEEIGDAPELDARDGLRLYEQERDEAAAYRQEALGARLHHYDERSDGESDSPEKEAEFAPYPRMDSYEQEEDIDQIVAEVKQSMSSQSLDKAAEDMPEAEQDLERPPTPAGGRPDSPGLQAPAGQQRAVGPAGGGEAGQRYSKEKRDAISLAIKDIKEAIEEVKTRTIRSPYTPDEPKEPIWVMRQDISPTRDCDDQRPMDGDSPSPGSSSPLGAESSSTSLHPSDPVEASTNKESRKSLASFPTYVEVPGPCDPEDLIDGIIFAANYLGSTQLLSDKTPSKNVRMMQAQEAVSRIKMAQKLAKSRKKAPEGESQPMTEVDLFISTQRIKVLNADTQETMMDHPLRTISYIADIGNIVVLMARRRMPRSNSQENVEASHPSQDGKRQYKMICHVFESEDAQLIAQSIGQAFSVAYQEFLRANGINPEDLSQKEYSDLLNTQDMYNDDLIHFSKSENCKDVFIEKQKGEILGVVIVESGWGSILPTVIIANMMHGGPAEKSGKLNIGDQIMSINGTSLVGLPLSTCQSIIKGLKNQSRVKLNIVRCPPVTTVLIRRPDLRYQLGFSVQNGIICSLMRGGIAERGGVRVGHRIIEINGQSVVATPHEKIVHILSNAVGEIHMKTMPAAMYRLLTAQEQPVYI
Sequence of Trypsin (P00761 whole entry): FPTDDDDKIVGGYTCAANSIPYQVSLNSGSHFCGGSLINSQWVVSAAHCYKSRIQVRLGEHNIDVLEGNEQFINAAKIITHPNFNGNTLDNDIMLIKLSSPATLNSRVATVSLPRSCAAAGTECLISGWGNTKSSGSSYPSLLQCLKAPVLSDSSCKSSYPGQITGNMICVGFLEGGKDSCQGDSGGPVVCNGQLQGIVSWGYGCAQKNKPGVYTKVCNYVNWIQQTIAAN
Sequence of Intestinal-type alkaline phosphatase (Mus musculus, UniProt P24822) (P24822 whole entry): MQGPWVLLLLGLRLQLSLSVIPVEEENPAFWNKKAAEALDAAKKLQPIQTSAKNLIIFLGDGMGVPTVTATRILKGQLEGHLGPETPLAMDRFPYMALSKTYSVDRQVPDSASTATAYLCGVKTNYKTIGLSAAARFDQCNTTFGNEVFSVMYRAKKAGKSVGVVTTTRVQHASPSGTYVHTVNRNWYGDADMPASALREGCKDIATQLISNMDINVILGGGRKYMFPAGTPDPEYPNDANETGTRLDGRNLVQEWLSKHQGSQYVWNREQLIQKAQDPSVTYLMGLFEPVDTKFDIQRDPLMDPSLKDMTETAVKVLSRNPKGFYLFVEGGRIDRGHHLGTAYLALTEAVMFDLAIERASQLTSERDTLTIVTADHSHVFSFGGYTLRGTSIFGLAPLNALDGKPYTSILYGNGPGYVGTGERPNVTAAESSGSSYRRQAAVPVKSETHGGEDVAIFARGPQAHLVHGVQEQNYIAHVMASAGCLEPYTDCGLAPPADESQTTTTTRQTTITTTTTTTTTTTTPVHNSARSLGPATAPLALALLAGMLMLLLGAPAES
Sequence of Intestinal-type alkaline phosphatase (Homo sapiens, UniProt P09923) (P09923 whole entry): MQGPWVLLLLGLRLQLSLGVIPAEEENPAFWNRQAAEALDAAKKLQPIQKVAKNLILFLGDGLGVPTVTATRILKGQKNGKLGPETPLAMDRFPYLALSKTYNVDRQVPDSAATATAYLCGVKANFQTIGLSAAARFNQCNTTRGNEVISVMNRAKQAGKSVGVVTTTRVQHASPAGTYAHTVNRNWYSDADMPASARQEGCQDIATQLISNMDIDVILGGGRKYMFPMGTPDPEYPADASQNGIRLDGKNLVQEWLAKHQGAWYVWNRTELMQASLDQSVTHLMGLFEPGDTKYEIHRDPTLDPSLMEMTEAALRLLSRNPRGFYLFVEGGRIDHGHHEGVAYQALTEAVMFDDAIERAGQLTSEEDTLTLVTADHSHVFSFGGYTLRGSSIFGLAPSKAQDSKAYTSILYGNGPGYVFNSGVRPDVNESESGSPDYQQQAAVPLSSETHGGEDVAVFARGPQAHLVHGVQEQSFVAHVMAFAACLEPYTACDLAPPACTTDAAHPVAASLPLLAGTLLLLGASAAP

For the compound `COCc1c(C(=O)N/N=C/C2CC=CCC2)nnn1-c1nonc1N` (stereo not given), the AC50 in series [1] was 29.9 µM (active).
Consider `COc1ccc(N2CC(C(=O)Nc3cc(C)on3)CC2=O)cc1` (stereo not given), for which the AC50 result in [2] is listed as “inconclusive”.
For `O=C(CSc1ccc2ccccc2c1Br)Nc1cccc(S(=O)(=O)NC2=NCCCCC2)c1`, the AC50 is 48 µM (active) in series [3] and 1.92 µM (active) in [4].
As to `CC1CCN(C(=O)c2cc3nc(-c4ccccc4)cc(-c4ccccc4)n3n2)CC1`, the values for the AC50 in series [5] and in series [1] were > 100 µM (inactive) and 19.1 µM (active), respectively.
Regarding `COc1ccc2c(c1)c(CC(=O)O)c(C)n2C(=O)c1ccccc1`, the AC50 in series [6] was 12.6 µM (inconclusive); in series [2], “inconclusive”.
For `S=c1[nH]nc(-c2ccccc2)o1`, the AC50 in [5] was 13.3 µM (active). The EC50 in series [7] is > 79.4 µM (not active); in [8], 16.2 µM (inactive); in series [9], 8.1 µM (active).
For `Cc1cccc(-n2sc3cc(F)ccc3c2=O)c1C`, the IC50 in series [10] was 22.7 µM (active); in series [11] it was 6.54 µM (inactive); in [12], 18.3 µM (active).
For the compound `COc1cccc(S(=O)(=O)NCc2ccc(C(=O)Nc3ccc(Cl)cc3)cc2)c1`, the AC50 in series [3] is 102 µM (active); in series [4], 35 µM (active).
For `FC(F)Oc1ccc(NC(S)=NC2CCSc3ccccc32)cc1` (stereo not given), the IC50 in series [13] is > 100 µM (inactive); in series [14], 5.64 µM (active); in series [15], > 100 µM (inactive).
In the case of `Cc1ccc(C)c(NS(=O)(=O)c2ccc3[nH]c(=O)oc3c2)c1`, the IC50 in series [13] is > 100 µM (inactive); in series [14], 15.7 µM (active); in series [15] it was > 100 µM (inactive).
On to `Cc1c(Cl)cccc1-n1sc2cc([N+](=O)[O-])cc(OCC(F)(F)F)c2c1=O`, for which the IC50 in series [10] was 3.03 µM (active); in [11], 0.555 µM (active); in series [12], 9.06 µM (active).
In the case of `CCCn1cnc2c(SCc3ccccc3Cl)nc(N)nc21`, in series [16], the IC50 was > 25 µM (active).
Take `Cc1cccc(-n2sc3ccccc3c2=O)c1`: the IC50 in series [10] was 5.29 µM (active); in [11], 2.73 µM (inactive); in series [12], 22.3 µM (active).
As to `CCOC(=O)c1sc(-c2ccccc2)cc1NC(=O)Nc1ccc([N+](=O)[O-])cc1`, the AC50 in series [17] is 35 µM (active).
Regarding `Cc1cccnc1NC(=S)Nc1ccc(F)cc1F`, the IC50 in [18] was 11.5 µM (active); in series [19] it was > 50 µM (inactive).
For `CN(C)CCNC(=O)C1CCCNC1=O` (stereo not given), the half-maximal activity concentration (AC50) entry in [20] and in series [2] was “inconclusive” in each case.
With `C=CCn1/c(=N/C(=O)c2ccc(S(=O)(=O)N3CCCc4ccccc43)cc2)sc2cc(S(N)(=O)=O)ccc21`, the AC50 is 84.8 µM (active) in series [3] and 2.01 µM (active) in [4].
For `CCOC(=O)C1(Cc2cccc(F)c2)CCN(C2CCOCC2)CC1`, in series [17], the AC50 was 35.1 µM (active).
Consider `CCOC(=O)c1cc(-c2ccc(F)cc2)nc2c1c(=O)[nH]c(=O)n2Cc1ccccc1`, for which the IC50 in [18] is > 56.8 µM (not active); in series [19], > 50 µM (inactive).
